Read-outs that look alike come from different tables or passages of the source.
Tests used:
CV-1 cells [1] = assay: Transfection of CV-1 cells with ODN1 and toxicity (Example 6); settings: 18 h, 10% FBS; for cells transfected CV-1: 15 μg/mL lipid, 1:1 DOPE, 250 pmole ODN1
Description: (§4) Preparation of lipid-nucleic acid complexes and cell transfection. Lipids were prepared for complexing with nucleic acids by drying a cationic lipid-colipid mixture in CHCl3 under argon. The molar ratio of cationic lipid to colipid was adjusted by adding appropriate amounts of each lipid in CHCl3 together prior to drying. Usually 10 mL of water was added to a 100 mL round bottom flask containing a dried film of lipid and colipid. The lipids consisted of a mixture of an invention cationic lipid and the colipid DOPE (dioleylphosphatidylethanolamine). Sterile-filtered water or a low ionic strength aqueous buffer such as physiological saline, TE (10 mM tris, 1 mM EDTA, pH 7-8) or Ringer's solution was then added to the dried lipids to obtain a lipid suspension at 1 mg lipid/mL followed by a 10 minute bath sonication (Ultra Sonik 100, NEY) at room temperature to suspend the lipids in the flask. The suspended lipids (10 mL) were then sonicated 5 times for 15 seconds per sonication at 0°-4° C. with about 30-60 seconds between pulses. Sonication was usually conducted in a 15 mL polypropylene culture tube. A probe sonicator (Sonifier 250, Branson Ultrasonics) was used at maximum power for the ice bath sonication and for each 15 second pulse. The lipid suspension was optionally filtered or centrifuged (2000 rpm, 10 minutes at 0-4° C.) to remove large particulate matter and the resulting lipid suspensions were kept at 4° C. until used.
(§5) Lipid nucleic acid complexes were prepared by mixing (a) 10% v/v (usually 100 μL) oligonucleotide in Optimem™ (Bethesda Research Labs, Inc.) at room temperature (about 19°-24° C.) with (b) 10% v/v lipid suspension in Optimem™ at room temperature and allowing the mixture to stand for about 15 minutes, followed by adding (c) 80% v/v Optimem™ without serum or 80% v/v tissue culture medium (Modified Essential Medium (MEM), Dulbecco's Modified Eagle's Medium (DMEM), etc. containing 0-80% fetal bovine serum (Hyclone, Inc.). The lipid and nucleic acid solutions could also be prepared using DMEM without serum, a low ionic strength (less than about 200 mM total ion concentration) aqueous medium lacking phosphate (TE, etc) or water in place of Optimem™. Typically, 100 μL each of Optimem™ containing oligonucleotide (100-500 pmole) and Optimem™ containing added lipid was mixed with 800 μL of serum free Optimem™ or with 800 μL of tissue culture medium containing 10-80% FBS. Generally, 5 or 10 μL (5 or 10 μg) of lipid was added to 95 or 90 μL of Optimem™ to give a final 1 mL transfection preparation containing 5 or 10 μg of lipid and 250 pmole of oligonucleotide. The lipid-nucleic acid mixture was held at room temperature for about 15 min hours before adding medium to give the final transfection preparation volume (usually 1 mL) and warming to 37° C. and immediately applying onto the cells. The transfection mixture was left on the cells for 2 to 24 hours (at 37° C.), with a 6 hour time period commonly used.
(§6) Cells were typically transfected using 1 mL of transfection mixture per well in a 6-well plate. Cells at about 50-100% confluency were used. […] Typical transfections with the invention lipids used cells at about 60-100% confluency.

A10 cells = assay: Transfection of A10 cells with ODN1 (Example 6); assay type: cell-based, rat; settings: 18 h, 10% FBS; for cells transfected A10: 15 μg/mL lipid, 1:1 DOPE, 250 pmole ODN1; for toxicity to A10 cells / transfection of A10 in the presence of serum: in words
Description: (§1) Preparation of lipid-nucleic acid complexes and cell transfection.
Cells at about 50-100% confluency were used.

SK-OV-3 cells = assay: Transfection of SK-OV-3 cells with ODN1 in 40% or 80% FBS (Example 7); assay type: cell-based, human; settings: for % SK-OV-3 transfected: 18 h, 500 pmole ODN1, 1:1 DOPE
Description: as §1
80% serum approximates the serum protein and ion conditions that exist in vivo in mammalian circulation. 30 is thus suitable for transfecting cells under physiological conditions.

cells [2] = assay: Amount of fluorescently labeled oligonucleotide delivered versus commercially available lipids; assay type: cell-based; settings: observed fluorescence intensity, estimated
Description: The difference in transfection efficiency between lipids described herein and commercially available lipids is usually most pronounced when the transfections are done in the presence of medium containing serum. The amount of polyanion delivered into cells was estimated to be about 2- to 100-fold greater for lipids 30, 34 and 35 based on the observed fluorescence intensity of transfected cells after transfection using a fluorescently labeled oligonucleotide. The cationic lipids described herein also transfect some cell types that are not detectably transfected by commercial lipids, particularly where the transfection is conducted in the presence of serum.

HUVEC cells = assay: Transfection of HUVEC cells with ODN1 (Example 9); assay type: cell-based, human; settings: for % HUVEC transfected: 10% serum, 5 h, 500 pmole ODN1
Description: as §1

ECl cells = assay: Transfection of ECl cells with ODN1 (Example 10); assay type: cell-based, human; settings: for % ECl transfected: DMEM
Description: as §1

cells [3] = assay: Transfection with filtered preparations; assay type: cell-based; settings: 1:1 DOPE, sonicated
Description: The invention cationic lipids 30 or 34 and DOPE colipid (1:1) were prepared by sonication and then filtered using 200, 100 or 50 nm filters to obtain particles less than about 200 nm in diameter, less than about 100 nm and less than about 50 nm. […] The 50 nm filtered preparations were about 40-50% as efficient as the preparations containing larger particles. The size of the particles or miscelles in a given preparation will vary depending on the preparation method. Sonicating cationic lipid-colipid mixtures will provide smaller miscelles and vortexing will provide larger miscelles (Felgner J. Biol. Chem. (1994) 269:2550-2561). Such miscelles are believed to transfer the polyanion into the cytoplasm of a eukaryotic or prokaryotic cell by pinocytosis, endocytosis and/or by direct fusion with the plasma membrane.

L7 cells = assay: Transfection of L7 cells with ODN1 (Example 11); assay type: cell-based, murine; settings: for % L7 transfected: 20% FBS, 18 h, 250 pmole ODN1
Description: as §1

NHEK cells = assay: Transfection of NHEK cells with ODN1 (Example 10); assay type: cell-based, human; settings: for % NHEK transfected: DMEM, 24 h
Description: as §1

CV-1 cells [4] = assay: Transfection of CV-1 cells with 30/ODN1 (Example 8); assay type: cell-based, African green monkey; settings: for % CV-1 transfected: 18 h, 500 pmole ODN1
Description: as §1
(§2) The toxicity noted for HL60 cells may have been at least partly due to the high level of ODN1 that was delivered to the cells.

HL60 cells = assay: Transfection of HL60 cells with 30/ODN1 (Example 8); assay type: cell-based, human; settings: for % HL60 transfected: 500 pmole ODN1
Description: as §1, §2

CV-1 cells [5] = tested on: CV-1 cells
Description: as §4, §5, §6

CV-1 cells [6] = assay: Transfection of CV-1 cells with ODN1 and toxicity (Example 22); assay type: cell-based, African green monkey; settings: 2:1 DOPE, 6 h, 10% FBS, 250 pmole ODN1
Description: (§3) Lipids 35, 52, 54 and 55 were each prepared using a 2:1 lipid:DOPE molar ratio as follows. Two molar equivalents of each lipid in CHCl3 and one equivalent of DOPE in CHCl3 was dried under reduced pressure by rotovap at room temperature. Deionized water was then added to give 1 mg/mL of total lipid. 10 mL of water containing 10 mg of lipid was vortexed for 5 minutes in a 100 mL round bottom flask. 2 mL aliquots were then used to prepare lipid suspensions for complexing with ODN1. Each preparation was obtained by 6 cycles of freezing on dry ice and thawing in a 37° C. water bath.

cdc-2 kinase = assay: cdc-2 antisense oligonucleotide analog transfection, Western blot (Example 22); assay type: cell-based, African green monkey; settings: 30 nM cdc-2 antisense oligonucleotide analog, 2.5 and 5.0 μg lipid
Description: The oligonucleotide contained 5-(1-propynyl)cytosine in place of cytosine and 5-(1-propynyl)uracil in place of uracil. A control oligonucleotide analog having a mismatched base sequence was also used to check for any non-specific effect on cdc-2 kinase levels in the transfected cells caused by the oligonucleotide analog. A control containing only lipid was also used as a control. […] Protein levels were examined by Western blot analysis.

[7] = Transfection of CV-1 cells with ODN1 and toxicity (Example 22); assay type: cell-based, African green monkey; settings: monkey, cv-1 cells; 10.0 μg lipid
Description: as §3

[8] = fluorescence observation, in words

With `CCCCCCCCCCCCNC(=O)CCC(=O)NCCCN1CCN(CCCN)CC1` [Compound 44] the “cells transfected CV-1” value (CV-1 cells [1]) was less than 5 and the “cells transfected A10” value (A10 cells) was less than 10.
In the case of `CCCCCCCCCCCCCCCCCCN(CCCCCCCCCCCCCCCCCC)C(=O)CCC(=O)NCCCN1CCN(CCCN)CC1` [Compound 38], the “% SK-OV-3 transfected” value (SK-OV-3 cells; 40% serum) is reported as less than 10%, the “% SK-OV-3 transfected” value (SK-OV-3 cells; 80% serum) is reported as 0% and the “cells transfected CV-1” value (CV-1 cells [1]) is reported as 70. The “toxicity to CV-1 cells” value (CV-1 cells [1]; in words) was “little or no toxicity”, the “transfection of CV-1 in the presence of serum” value (CV-1 cells [1]; in words) was “efficiently transfected” and the “cells transfected A10” value (A10 cells) was 85. For the same molecule, the “toxicity to A10 cells” value (A10 cells) was “little or no toxicity” and the “transfection of A10 in the presence of serum” value (A10 cells) was “efficiently transfected”.
With `CCCCCCCCCCCCCCCCCCN(CCCCCCCCCCCCCCCCCC)C(=O)CNC(=O)[C@@H](N)CCCN.Cl.Cl` [Compound 30] the “amount of polyanion delivered into cells relative to commercially available lipids” value (cells [2]) was 2- to 100 fold, the “% HUVEC transfected” value (HUVEC cells; 5 μg/mL lipid) was 1% and the “% HUVEC transfected” value (HUVEC cells; 10 μg/mL lipid) was 5%. For the same molecule, the “transfection of HUVEC” value (HUVEC cells; in words) was “modest efficiency”, the “% SK-OV-3 transfected” value (SK-OV-3 cells; 40% serum) was 76% and the “% SK-OV-3 transfected” value (SK-OV-3 cells; 80% serum) was 72%. For the same molecule, the “transfection of SK-OV-3 in the presence of serum” value (SK-OV-3 cells; in words) was “efficiently transfected”, the “% ECl transfected” value (ECl cells; 2.5 μg/mL lipid, 5 hour transfection) was 10% and the “% ECl transfected” value (ECl cells; 5 μg/mL lipid, 5 hour transfection) was 25-30%. For the same molecule, the “% ECl transfected” value (ECl cells; 5 μg/mL lipid, 6 hour transfection) was 30%, the “% ECl transfected” value (ECl cells; 10 μg/mL lipid, 5 hour transfection) was 51% and the “% ECl transfected” value (ECl cells; 10 μg/mL lipid, 6 hour transfection) was 43%. The “% ECl transfected” value (ECl cells; 15 μg/mL lipid, 5 hour transfection) was 70%, the “% ECl transfected” value (ECl cells; 20 μg/mL lipid, 6 hour transfection) was 20% and the “level of ODN1 delivered into ECl cells” value (ECl cells; [8]) was “high levels”. For the same molecule, the “toxicity ECl” value (ECl cells; in words) was “little to moderate toxicity”, the “transfection of ECl” value (ECl cells; in words) was “efficiently transfected” and the “transfection efficiency of 50 nm filtered preparations relative to larger particles” value (cells [3]; 50 nm filter) was 40-50%. The “transfection efficiency of 200 nm or 100 nm filtered preparations” value (cells [3]; in words) was “the most efficient (and equally efficient)”, the “% L7 transfected” value (L7 cells; 2.5 μg/mL lipid) was 10% and the “% L7 transfected” value (L7 cells; 5 μg/mL lipid) was 30%. The “% L7 transfected” value (L7 cells; 10 μg/mL lipid) was 60%, the “toxicity L7” value (L7 cells; in words) was “little or no toxicity” and the “transfection of L7” value (L7 cells; in words) was “efficiently transfected”. For the same molecule, the “% NHEK transfected” value (NHEK cells; 1 μg/mL lipid, second series) was 25%, the “% NHEK transfected” value (NHEK cells; 2.5 μg/mL lipid, second series) was 50% and the “% NHEK transfected” value (NHEK cells; 5 μg/mL lipid, first series) was 80-90%. The “% NHEK transfected” value (NHEK cells; 5 μg/mL lipid, second series) was 60-70%, the “% NHEK transfected” value (NHEK cells; 10 μg/mL lipid, first series) was 70% and the “% NHEK transfected” value (NHEK cells; 10 μg/mL lipid, second series) was 60-70%. For the same molecule, the “% NHEK transfected” value (NHEK cells; 20 μg/mL lipid, first series) was 60%, the “level of ODN1 delivered into NHEK cells” value (NHEK cells; [8]) was “high levels” and the “toxicity NHEK” value (NHEK cells; in words) was “little to moderate toxicity”. For the same molecule, the “transfection of NHEK” value (NHEK cells; in words) was “efficiently transfected”, the “% CV-1 transfected” value (CV-1 cells [4]; 2.5 μg/mL, 10% serum) was 90% and the “% CV-1 transfected” value (CV-1 cells [4]; 5 μg/mL, 10% serum) was greater than 95%. The “% CV-1 transfected” value (CV-1 cells [4]; 10 μg/mL, 10% serum) was greater than 95%, the “% CV-1 transfected” value (CV-1 cells [4]; 15 μg/mL, 10% serum) was greater than 95% and the “% CV-1 transfected” value (CV-1 cells [4]; 20 μg/mL, 50% serum) was 95%. The “% CV-1 transfected” value (CV-1 cells [4]; 20 μg/mL, 80% serum) was 90%, the “transfection of CV-1 at reduced levels of lipid” value (CV-1 cells [4]; in words) was “efficiently transfected” and the “cells transfected CV-1” value (CV-1 cells [1]) was 85. For the same molecule, the “transfection of CV-1 in the presence of serum” value (CV-1 cells [1]; in words) was “efficiently transfected”, the “% HL60 transfected” value (HL60 cells; 20 μg/mL, 0% serum, 5 h) was 77% and the “% HL60 transfected” value (HL60 cells; 20 μg/mL, 10% serum, 5 h) was 76%. For the same molecule, the “toxicity HL60” value (HL60 cells; 20 μg/mL, 10% serum, 5 h, footnote) was “significant toxicity noted”, the “transfection of HL60” value (HL60 cells; in words) was “efficiently transfected” and the “cells transfected A10” value (A10 cells) was 95. The “toxicity to A10 cells” value (A10 cells) was “little or no toxicity”, the “transfection of A10 in the presence of serum” value (A10 cells) was “efficiently transfected” and the “toxicity to CV-1 cells” value (CV-1 cells [5]) was “little or no toxicity”.
With `CCCCCCCCCCCCCCN(CCCCCCCCCCCCCC)C(=O)CNC(=O)C(N)CCCNC(=N)NC(C)=O.Cl.Cl` (centres unmarked) [Compound 52] the “% cells transfected” value (CV-1 cells [6]; 1 μg lipid) was 30-40%, the “% cells transfected” value (CV-1 cells [6]; 2.5 μg lipid) was 60% and the “% cells transfected” value (CV-1 cells [6]; 5.0 μg lipid) was 60%. For the same molecule, the “% cells transfected” value (CV-1 cells [6]; 10.0 μg lipid) was 60%.
For `CCCCCCCCCCCCCCN(CCCCCCCCCCCCCC)C(=O)CNC(=O)C(N)CCCNC(=N)NC(=O)C(C)(C)C.Cl.Cl` (centres unmarked) [Compound 54], the “% cells transfected” value (CV-1 cells [6]; 1 μg lipid) was 10-20%, the “% cells transfected” value (CV-1 cells [6]; 2.5 μg lipid) was 30-40% and the “% cells transfected” value (CV-1 cells [6]; 5.0 μg lipid) was 70-80%. The “% cells transfected” value (CV-1 cells [6]; 10.0 μg lipid) was 40%.
For `CCCCCCCCCCCCCCN(CCCCCCCCCCCCCC)C(=O)CNC(=O)C(N)CCCNC(=N)NC(=O)OC(C)C.Cl.Cl` (centres unmarked) [Compound 53], the “% cells transfected” value (CV-1 cells [6]; 1 μg lipid) was 30%, the “% cells transfected” value (CV-1 cells [6]; 2.5 μg lipid) was 70% and the “% cells transfected” value (CV-1 cells [6]; 5.0 μg lipid) was 100%. The “% cells transfected” value (CV-1 cells [6]; 10.0 μg lipid) was 60% and the cdc-2 protein levels (cdc-2 kinase) was “efficiently reduced cdc-2 protein levels”.
With `CCCCCCCCCCCCCCN(CCCCCCCCCCCCCC)C(=O)CNC(=O)[C@@H](N)CCCNC(=N)N` [Compound 55] the cytotoxicity at 6 h [7] was greater than 40%, the “% cells transfected” value (CV-1 cells [6]; 1 μg lipid) was 40% and the “% cells transfected” value (CV-1 cells [6]; 2.5 μg lipid) was 75%. For the same molecule, the “% cells transfected” value (CV-1 cells [6]; 5.0 μg lipid) was 100%, the “% cells transfected” value (CV-1 cells [6]; 10.0 μg lipid) was 40% and the cdc-2 protein levels (cdc-2 kinase) was “efficiently reduced cdc-2 protein levels”.

Reference: patent US5705693A, “Cationic lipids” (Gilead Sciences, Inc., priority 1995, dated 1998)
